Consider 26 compounds from patent US20220388979A1, “QUINOLINE DERIVATIVES AS PROTEIN KINASE INHIBITORS” (B.C.I. PHARMA, priority 2019, published 2022).

Settings in all cases: at 50 nM, in duplicate
One assay concerns the target PDGFRB (Homo sapiens, UniProt P09619). Put plainly: Z'-Lyte biochemical kinase assay (SelectScreen), PDGFRB. How it is done: (§1) A biochemical assay was performed in order to measure the protein kinase inhibition. The kinase binding assays were performed against different kinases using the SelectScreen Biochemical Kinase Profiling Service® platform (Thermo Fisher Scientific). For all kinases, the Z′-Lyte® biochemical kinase assay technology was used. Inhibitions were measured at 50 nM in duplicate for each compound and are reported in percentage.

For a further assay, the target named is PDGFRA (Homo sapiens, UniProt P16234). Put plainly: Z'-Lyte biochemical kinase assay (SelectScreen), PDGFRA. On the procedure: as §1
Another assay concerns the target CSF1R (Homo sapiens, UniProt P07333). Put plainly: Z'-Lyte biochemical kinase assay (SelectScreen), CSF1R. How it is done:
as §1

The next assay has as its target Kit (Homo sapiens, UniProt P10721). The assay can be described thus: Z'-Lyte biochemical kinase assay (SelectScreen), Kit. How it is done:
as §1

Another assay addresses T1, FLT3 (Homo sapiens, UniProt P36888).
T1 sequence (P36888 27-993): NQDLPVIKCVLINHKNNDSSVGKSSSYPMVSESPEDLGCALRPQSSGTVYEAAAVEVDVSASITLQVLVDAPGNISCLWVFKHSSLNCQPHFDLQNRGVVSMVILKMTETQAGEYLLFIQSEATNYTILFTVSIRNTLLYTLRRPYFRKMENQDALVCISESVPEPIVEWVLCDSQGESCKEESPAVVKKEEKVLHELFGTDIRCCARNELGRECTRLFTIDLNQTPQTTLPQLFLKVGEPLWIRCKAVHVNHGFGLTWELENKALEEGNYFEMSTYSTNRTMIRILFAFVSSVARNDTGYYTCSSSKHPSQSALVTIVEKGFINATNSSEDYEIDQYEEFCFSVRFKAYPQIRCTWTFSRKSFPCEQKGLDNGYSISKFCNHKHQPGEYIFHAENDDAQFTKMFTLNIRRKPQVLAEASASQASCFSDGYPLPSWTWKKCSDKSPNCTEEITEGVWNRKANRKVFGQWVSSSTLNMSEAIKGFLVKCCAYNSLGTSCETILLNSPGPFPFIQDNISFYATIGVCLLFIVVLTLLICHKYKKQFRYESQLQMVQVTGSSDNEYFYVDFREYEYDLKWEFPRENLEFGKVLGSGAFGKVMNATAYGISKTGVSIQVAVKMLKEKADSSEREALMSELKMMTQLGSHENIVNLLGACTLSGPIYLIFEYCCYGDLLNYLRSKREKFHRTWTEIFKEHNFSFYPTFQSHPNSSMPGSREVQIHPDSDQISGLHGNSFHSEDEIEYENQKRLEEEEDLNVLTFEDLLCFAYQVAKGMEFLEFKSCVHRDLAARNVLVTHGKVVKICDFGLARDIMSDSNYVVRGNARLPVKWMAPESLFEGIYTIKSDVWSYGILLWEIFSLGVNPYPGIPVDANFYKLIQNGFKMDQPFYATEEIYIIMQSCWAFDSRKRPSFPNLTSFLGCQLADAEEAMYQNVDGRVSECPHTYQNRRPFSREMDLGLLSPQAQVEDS
Put plainly: Z'-Lyte biochemical kinase assay (SelectScreen), FLT3. How it is done: as §1

As usually defined, the inhibition is the relative decrease from the control value, in per cent.

Sequence of PDGFRA (P16234 24-1089): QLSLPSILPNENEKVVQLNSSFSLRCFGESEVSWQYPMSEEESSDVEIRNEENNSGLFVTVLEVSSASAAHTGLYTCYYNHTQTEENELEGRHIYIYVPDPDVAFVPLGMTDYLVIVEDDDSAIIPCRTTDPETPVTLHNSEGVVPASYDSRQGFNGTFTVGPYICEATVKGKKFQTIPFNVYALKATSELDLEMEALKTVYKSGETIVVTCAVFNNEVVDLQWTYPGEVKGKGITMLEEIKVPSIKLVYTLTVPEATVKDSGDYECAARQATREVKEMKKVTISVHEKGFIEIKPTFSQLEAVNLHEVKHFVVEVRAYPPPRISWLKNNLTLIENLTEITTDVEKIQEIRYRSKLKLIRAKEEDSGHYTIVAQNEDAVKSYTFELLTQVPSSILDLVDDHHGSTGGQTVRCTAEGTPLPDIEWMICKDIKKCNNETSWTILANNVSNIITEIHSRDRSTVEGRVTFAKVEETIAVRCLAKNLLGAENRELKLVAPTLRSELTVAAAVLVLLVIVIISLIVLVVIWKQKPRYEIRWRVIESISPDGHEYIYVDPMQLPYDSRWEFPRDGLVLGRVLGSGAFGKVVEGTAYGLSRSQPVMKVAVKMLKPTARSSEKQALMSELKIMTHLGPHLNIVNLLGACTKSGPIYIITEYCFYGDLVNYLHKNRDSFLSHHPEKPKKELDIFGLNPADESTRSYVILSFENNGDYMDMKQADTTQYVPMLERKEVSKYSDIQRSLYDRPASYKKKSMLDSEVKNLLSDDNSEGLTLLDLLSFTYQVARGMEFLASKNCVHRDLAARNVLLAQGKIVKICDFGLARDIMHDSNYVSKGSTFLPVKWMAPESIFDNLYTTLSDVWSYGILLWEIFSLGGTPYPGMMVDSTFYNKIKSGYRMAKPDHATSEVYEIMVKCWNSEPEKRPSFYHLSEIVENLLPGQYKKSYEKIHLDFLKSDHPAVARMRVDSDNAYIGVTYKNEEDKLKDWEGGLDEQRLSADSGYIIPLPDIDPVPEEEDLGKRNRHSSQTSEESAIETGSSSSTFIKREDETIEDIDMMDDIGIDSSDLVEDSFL
Sequence of Kit (P10721 26-976): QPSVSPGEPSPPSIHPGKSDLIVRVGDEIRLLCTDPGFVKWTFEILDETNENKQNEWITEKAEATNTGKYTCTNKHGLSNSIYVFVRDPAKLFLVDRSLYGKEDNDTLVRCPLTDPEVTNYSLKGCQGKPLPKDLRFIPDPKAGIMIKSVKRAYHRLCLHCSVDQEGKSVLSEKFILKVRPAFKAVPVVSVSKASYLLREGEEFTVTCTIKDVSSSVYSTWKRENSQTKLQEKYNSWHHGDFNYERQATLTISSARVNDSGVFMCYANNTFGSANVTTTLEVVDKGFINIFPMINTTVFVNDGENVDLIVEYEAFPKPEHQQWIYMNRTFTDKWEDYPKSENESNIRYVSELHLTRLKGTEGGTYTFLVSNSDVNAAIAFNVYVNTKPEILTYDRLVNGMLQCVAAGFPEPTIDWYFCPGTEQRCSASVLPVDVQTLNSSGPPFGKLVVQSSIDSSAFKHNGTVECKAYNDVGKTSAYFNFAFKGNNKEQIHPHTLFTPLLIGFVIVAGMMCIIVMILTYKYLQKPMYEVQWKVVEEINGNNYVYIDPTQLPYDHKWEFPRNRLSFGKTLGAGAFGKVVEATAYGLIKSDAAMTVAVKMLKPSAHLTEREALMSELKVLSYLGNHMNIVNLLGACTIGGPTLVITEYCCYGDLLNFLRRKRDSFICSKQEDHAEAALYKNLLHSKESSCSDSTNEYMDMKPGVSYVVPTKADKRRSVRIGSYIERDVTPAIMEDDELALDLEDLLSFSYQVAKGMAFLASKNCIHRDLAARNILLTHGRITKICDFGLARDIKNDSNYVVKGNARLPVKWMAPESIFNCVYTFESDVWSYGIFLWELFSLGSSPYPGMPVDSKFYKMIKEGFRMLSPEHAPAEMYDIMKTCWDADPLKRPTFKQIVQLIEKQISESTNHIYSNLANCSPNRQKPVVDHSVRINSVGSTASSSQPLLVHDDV
Sequence of CSF1R (P07333 20-972): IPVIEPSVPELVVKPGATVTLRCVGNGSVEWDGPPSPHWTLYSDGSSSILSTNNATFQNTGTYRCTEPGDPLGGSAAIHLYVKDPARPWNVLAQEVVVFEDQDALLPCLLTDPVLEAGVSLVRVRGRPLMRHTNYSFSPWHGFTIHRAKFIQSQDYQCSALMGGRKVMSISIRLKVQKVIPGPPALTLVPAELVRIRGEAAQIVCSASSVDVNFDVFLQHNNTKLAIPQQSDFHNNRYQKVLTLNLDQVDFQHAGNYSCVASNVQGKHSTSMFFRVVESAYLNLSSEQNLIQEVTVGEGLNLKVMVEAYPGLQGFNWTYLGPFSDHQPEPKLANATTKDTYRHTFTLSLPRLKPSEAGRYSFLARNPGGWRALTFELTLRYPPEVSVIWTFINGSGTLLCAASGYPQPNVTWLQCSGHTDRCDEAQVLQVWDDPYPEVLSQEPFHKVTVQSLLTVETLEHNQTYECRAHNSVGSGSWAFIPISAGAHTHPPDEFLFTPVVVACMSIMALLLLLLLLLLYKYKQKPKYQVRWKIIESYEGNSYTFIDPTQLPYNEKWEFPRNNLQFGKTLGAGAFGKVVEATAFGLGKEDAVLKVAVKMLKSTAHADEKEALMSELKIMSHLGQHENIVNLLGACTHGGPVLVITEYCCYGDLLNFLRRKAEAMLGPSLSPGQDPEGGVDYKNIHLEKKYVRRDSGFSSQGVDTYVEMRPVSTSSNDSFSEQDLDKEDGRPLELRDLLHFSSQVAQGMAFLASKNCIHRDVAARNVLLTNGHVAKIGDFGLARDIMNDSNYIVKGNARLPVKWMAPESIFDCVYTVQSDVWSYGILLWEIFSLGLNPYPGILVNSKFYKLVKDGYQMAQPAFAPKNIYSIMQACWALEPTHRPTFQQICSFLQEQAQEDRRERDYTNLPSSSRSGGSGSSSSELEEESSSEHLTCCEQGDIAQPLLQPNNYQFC
Sequence of PDGFRB (P09619 33-1106): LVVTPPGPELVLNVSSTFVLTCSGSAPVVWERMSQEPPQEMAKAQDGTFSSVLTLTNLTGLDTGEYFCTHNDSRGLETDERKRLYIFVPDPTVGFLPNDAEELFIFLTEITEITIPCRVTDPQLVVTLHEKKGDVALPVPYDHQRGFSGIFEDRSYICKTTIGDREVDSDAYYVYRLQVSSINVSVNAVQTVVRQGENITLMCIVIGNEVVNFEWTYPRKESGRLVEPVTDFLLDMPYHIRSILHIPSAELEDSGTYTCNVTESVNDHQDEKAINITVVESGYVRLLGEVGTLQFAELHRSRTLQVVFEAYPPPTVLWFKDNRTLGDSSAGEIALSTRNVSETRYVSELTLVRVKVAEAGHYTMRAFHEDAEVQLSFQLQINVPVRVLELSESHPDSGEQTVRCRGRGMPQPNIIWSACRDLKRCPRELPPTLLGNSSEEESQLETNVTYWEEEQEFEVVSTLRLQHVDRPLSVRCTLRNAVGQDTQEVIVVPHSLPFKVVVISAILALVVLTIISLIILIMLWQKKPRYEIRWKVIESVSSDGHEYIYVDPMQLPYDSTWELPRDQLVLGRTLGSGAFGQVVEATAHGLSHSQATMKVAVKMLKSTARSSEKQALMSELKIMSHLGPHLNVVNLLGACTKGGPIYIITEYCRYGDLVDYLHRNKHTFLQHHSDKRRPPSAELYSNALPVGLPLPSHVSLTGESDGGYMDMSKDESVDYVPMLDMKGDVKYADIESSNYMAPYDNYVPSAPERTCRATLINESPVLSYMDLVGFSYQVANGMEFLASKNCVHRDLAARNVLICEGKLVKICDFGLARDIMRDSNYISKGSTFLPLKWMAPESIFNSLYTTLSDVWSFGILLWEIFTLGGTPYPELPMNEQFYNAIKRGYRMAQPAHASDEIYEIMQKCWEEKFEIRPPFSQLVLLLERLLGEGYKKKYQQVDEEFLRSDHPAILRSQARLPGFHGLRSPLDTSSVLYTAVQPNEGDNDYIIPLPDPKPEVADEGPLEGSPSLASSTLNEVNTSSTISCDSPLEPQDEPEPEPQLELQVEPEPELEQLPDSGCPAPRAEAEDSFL

Take `COc1ccc2c(Oc3cccc(C(=O)NCc4ccncc4)c3C)ccnc2c1` [Compounds 32]: the inhibition at 0.05 µM at PDGFRB was 6%; against PDGFRA, 2%; against CSF1R, 96%; at Kit, 2%; against FLT3, 8%.
For `Cc1c(Oc2ccnc3cc(Cl)ccc23)cccc1C(=O)NCc1ccncc1` [Compounds 108], the inhibition at 0.05 µM worked out at 13% at PDGFRB; 11% on PDGFRA; 88% against CSF1R; 10% against Kit; 6% against FLT3.
Take `O=C(NCC1CCCCC1)c1cccc(Oc2ccnc3ccccc23)c1` [compound 3]: the inhibition at 0.05 µM is 27% against PDGFRB; 18% against PDGFRA; 71% against CSF1R; 7% against Kit; 6% against FLT3.
The like results for `COc1ccccc1CNC(=O)c1cccc(Oc2ccnc3ccccc23)c1` [compound 7] were, in that order, 22%, 16%, 85%, 20% and 14%.
The corresponding values for `O=C(NCc1cccc(F)c1)c1cccc(Oc2ccnc3ccccc23)c1` [compound 10] are 24%, 17%, 71%, 11% and 18%.
The corresponding values for `O=C(NCc1ccc(F)cc1)c1cccc(Oc2ccnc3ccccc23)c1` [compound 16] are 24%, 23%, 81%, 15% and 7%.
`O=C(NCc1cncc(F)c1)c1cccc(Oc2ccnc3ccccc23)c1` [compound 17]: the inhibition at 0.05 µM was 12% at PDGFRB; 15% on PDGFRA; 83% on CSF1R; 14% on Kit; -4% against FLT3.
The like results for `COc1cc2nccc(Oc3cccc(C(=O)N[C@H](C)c4ccccc4)c3)c2cc1OC` [compound 24] were, in that order, 34%, 24%, 97%, 29% and 44%.
The like results for `COc1cc2nccc(Oc3cccc(C(=O)NCCc4ccccc4)c3)c2cc1OC` [compound 25] were, in that order, 39%, 27%, 95%, 32% and 48%.
The corresponding values for `COc1ccccc1CNC(=O)c1cccc(Oc2ccnc3cc(OC)c(OC)cc23)c1` [compound 26] are 50%, 35%, 102%, 32% and 47%.
As for `COc1cc2nccc(Oc3cccc(C(=O)NCC4CCCCC4)c3)c2cc1OC` [compound 27], the inhibition at 0.05 µM on PDGFRB amounted to 44%; against PDGFRA, 23%; against CSF1R, 93%; against Kit, 26%; against FLT3, 39%.
The like results for `COc1cc2nccc(Oc3cccc(C(=O)NCc4cncc(F)c4)c3)c2cc1OC` [compound 29] were, in that order, 28%, 21%, 93%, 17% and 2%.
The corresponding values for `Cc1c(Oc2ccnc3ccccc23)cccc1C(=O)NCc1ccc(C#N)cc1` [compound 30] are 11%, 8%, 72%, 8% and 10%.
The corresponding values for `COc1ccc2c(Oc3cccc(C(=O)NCc4cccc(F)c4)c3C)ccnc2c1` [compound 33] are 14%, 10%, 78%, 4% and 16%.
`O=C(NCc1cccnc1)c1cccc(Oc2ccnc3ccccc23)c1` [compound 74]: the inhibition at 0.05 µM against PDGFRB came to 12%; on PDGFRA it was 7%; against CSF1R it was 83%; on Kit, 20%; against FLT3, 25%.
The like results for `O=C(NCc1ccncc1)c1cccc(Oc2ccnc3ccccc23)c1` [compound 75] were, in that order, 10%, -1%, 79%, 20% and 16%.
The like results for `COc1cc2nccc(Oc3cccc(C(=O)NCc4ccccc4)c3)c2cc1OC` [compound 84] were, in that order, 54%, 16%, 91%, 34% and 37%.
The corresponding values for `COc1ccc2c(Oc3cccc(C(=O)NCc4ccccc4)c3)ccnc2c1` [compound 85] are 28%, 22%, 85%, 31% and 26%.
As for `COc1ccc2c(Oc3cc(F)cc(C(=O)NCc4ccccc4OC)c3)ccnc2c1` [compound 88], the inhibition at 0.05 µM against PDGFRB was 53%; on PDGFRA, 31%; on CSF1R, 85%; on Kit, 30%; on FLT3, 29%.
The corresponding values for `COc1ccccc1CNC(=O)c1cc(F)cc(Oc2ccnc3cc(OC)c(OC)cc23)c1` [compound 89] are 48%, 49%, 86%, 21% and 36%.
The corresponding values for `COc1cc2nccc(Oc3cc(F)cc(C(=O)N[C@H](C)C4CCCCC4)c3)c2cc1OC` [compound 90] are 28%, 28%, 77%, 9% and 26%.
The like results for `COc1ccccc1CNC(=O)c1ccc(F)c(Oc2ccnc3cc(OC)c(OC)cc23)c1` [compound 92] were, in that order, 60%, 24%, 94%, 13% and 50%.
As for `COc1cc2nccc(Oc3cc(C(=O)N[C@H](C)C4CCCCC4)ccc3F)c2cc1OC` [compound 93], the inhibition at 0.05 µM on PDGFRB is 24%; on PDGFRA, 23%; on CSF1R, 82%; against Kit, 2%; at FLT3, 3%.
The like results for `COc1cc2nccc(Oc3cc(C(=O)NCc4cccc(F)c4)ccc3F)c2cc1OC` [compound 94] were, in that order, 45%, 30%, 93%, 32% and 27%.
In the case of `COc1ccc2c(Oc3cc(C(=O)NCc4ccncc4)ccc3F)ccnc2c1` [compound 98], the inhibition at 0.05 µM at PDGFRB came out at 23%; against PDGFRA, 6%; against CSF1R, 79%; against Kit it was 5%; at FLT3, 6%.
Turning to `COc1ccccc1CNC(=O)c1ccc(F)c(Oc2ccnc3ccccc23)c1` [compound 99], the inhibition at 0.05 µM turned out to be 20% at PDGFRB; 17% against PDGFRA; 75% on CSF1R; 0% on Kit; 26% on FLT3.
